{"source": "ChEMBL document CHEMBL1933019", "about": "“Cell-based and in-silico studies on the high intrinsic activity of two boron-containing salbutamol derivatives at the human β₂-adrenoceptor” (Bioorg Med Chem, 2012)", "key": {"[1]": {"biological_target": "T1, Beta-2 adrenergic receptor (Homo sapiens, UniProt P07550)", "T1 sequence (P07550 whole entry)": "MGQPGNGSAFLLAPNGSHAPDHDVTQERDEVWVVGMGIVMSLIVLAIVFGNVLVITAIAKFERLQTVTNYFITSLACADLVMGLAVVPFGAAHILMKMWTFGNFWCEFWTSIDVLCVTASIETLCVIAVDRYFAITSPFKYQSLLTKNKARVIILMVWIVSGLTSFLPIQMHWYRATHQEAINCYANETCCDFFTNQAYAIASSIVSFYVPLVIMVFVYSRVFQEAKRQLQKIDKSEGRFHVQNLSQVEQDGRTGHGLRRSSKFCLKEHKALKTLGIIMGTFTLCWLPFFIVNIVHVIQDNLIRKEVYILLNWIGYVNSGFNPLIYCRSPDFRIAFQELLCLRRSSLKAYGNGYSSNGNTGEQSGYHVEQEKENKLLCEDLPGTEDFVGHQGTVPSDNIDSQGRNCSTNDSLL", "assay": "Displacement of [3H]-DHA from recombinant human beta2 adrenoceptor expressed in HEK293T cells", "assay_type": "cell-based, HEK-293T"}, "[2]": {"biological_target": "T1, Beta-2 adrenergic receptor", "assay": "Agonist activity at recombinant human beta2 adrenoceptor expressed in HEK293T cells assessed as increase in IBMX-induced cAMP accumulation using [3H]-cAMP after 30 mins by liquid scintillation counting", "assay_type": "functional, cell-based, HEK-293T"}}}
{"molecule": "CC(C)(C)NC[C@H](O)c1ccc2c(c1)C[OH+][B-](O)(O)O2", "values": [{"measurement": "Ki", "setting": "[1]", "result": 3.89, "unit": "µM"}, {"measurement": "EC50", "setting": "[2]", "result": 0.166, "unit": "µM"}]}
{"molecule": "CC(C)(C)NC[C@H](O)c1ccc2c(c1)C[OH+][B-](O)(c1ccccc1)O2", "note": "(some centres undefined)", "values": [{"measurement": "Ki", "setting": "[1]", "result": 6.61, "unit": "µM"}, {"measurement": "EC50", "setting": "[2]", "result": 0.138, "unit": "µM"}]}
